How the values were obtained:
[1] = system: GLUT4 in adipocytes; conditions: ≦10% in the absence of insulin; cited from earlier work
[2] = system: GLUT4 reporter (GLUT4myc7-GFP) in 3T3-L1 cells; experiment: Flow cytometry assay of GLUT4 reporter translocation to the plasma membrane in 3T3-L1 cells; type: cell-based, murine; conditions: for fold increase in the proportion of total GLUT4 present at the cell surface: insulin 80 nM
Protocol: A GLUT4 translocation assay was carried out as follows: 3T3 L1 preadipocytes were infected with a retrovirus encoding a GLUT4 construct fused to green fluorescent protein (GFP) at its carboxy terminus, and containing seven myc epitope tags in the first exofacial loop. A population of cells expressing a narrow window of green fluorescence was isolated by fluorescence activated cell sorting (FACS). These cells were propagated and differentiated on 10 cm plates, and were reseeded on 6-well dishes the day prior to performing the GLUT4 translocation assay. Cells were serum starved for 3 hours, then stimulated or not with 160 nM insulin for 10 minutes. They were then placed on ice and washed with cold phosphate buffered saline with calcium and magnesium (PBS++). All subsequent steps were done at 4° C. Cells were incubated with anti-myc antibody (9E10), washed briefly with PBS++, and incubated with phycoerythrin-conjugated F(ab)2 antimouse IgG. Cells were washed with PBS++, resuspended using EDTA, and analysed by two color flow cytometry.
One protocol for carrying out the method of assessing translocation of modified GLUT4 is as follows: 3T3L1 cells are maintained at a subconfluent density, infected with retrovirus expression vectors which include DNA encoding modified GLUT4 and induced to differentiate into adipocytes. After being cultured (e.g., for 8-12 days) under appropriate conditions, the cells are reseeded onto plates (e.g., 6-well plates) and serum starved (e.g., for 3 or more hours). Some cells are stimulated by insulin (e.g., 160 nM, 10 minutes), placed on ice and washed at 4° C. with PBS++ (phosphate buffered saline containing calcium and magnesium). Anti-myc antibody (9E10, available from the American Type Culture Collection) is added to the cells ([…], 1 ½ hours, 4° C.). The cells are again washed with PBS++ at 4° C. and an […] labeled with a red fluorophore (R-phycoerythrin (R-PE) conjugated antimouse IgG, 50 μg/ml, 45 minutes, 4° C.) is added. Another washing with PBS++(4° C.) is carried out, the cells are suspended with EDTA and FACS (fluorescences activated cell scanning/sorting) is carried out.
Confluent cells were reseeded on the indicated day of differentiation to six well plates (Coming, Costar #3506) one day before use in experiments, and were starved in DMEM without fetal bovine serum for at least 3 hours before insulin stimulation. Insulin was used at 80 nM or 160 nM; no difference was noted between these concentrations in either 3T3-L1 or CHO cells. After treatment in the presence or absence of insulin for the times indicated in each figure, cells were quickly transferred to 4° C. and washed with cold phosphate buffered saline containing 0.9 mM Ca^++ and 0.5 mM Mg^++ (PBS++). All subsequent steps were carried out at 4° C., and staining of externalized myc epitope was done on adherent cells. Cells were incubated with a 1:200 dilution of anti-myc (9E10) ascites in PBS++, 2% bovine serum albumin, 4% donkey serum for 1.5 hours. Cells were then washed twice in PBS++, for 5 min. each time. They were then incubated 45 min. in 12.5 µg/ml R-phycoerythrin conjugated donkey F(ab′)2 anti-mouse IgG secondary antibody, diluted in PBS++, 2% BSA, 4% donkey serum. Cells were washed three times with PBS++, for 10 min. each time, and were resuspended by gentle scraping in PBS++, 2% BSA for flow cytometry. […]

[3] = system: GLUT4myc-GFP in 3T3-L1 adipocytes; experiment: Time-lapse video fluorescence microscopy of GLUT4myc-GFP in 3T3-L1 adipocytes; type: cell-based, murine; conditions: 3T3-L1 adipocyte; 2.5, 5 and 10 minutes after insulin
Protocol: Time lapse video fluorescence microscopy was performed using a Nikon Diaphot 300 inverted microscope as described (Smith, G. A., et al., J Cell Biol. 135:647-660 (1996)). 3T3-L1 adipocytes expressing GLUT4myc-GFP were reseeded to 25 mm round coverslips and were incubated in serum-free DMEM for at least three hours before microscopy. Cells were maintained at 37° C. during microscopy using an aluminum chamber mounted on the stage and connected to a circulating waterbath. Images were acquired every 15 sec using a Hammamatsu CCD camera and Metamorph software (Universal Imaging Corp., West Chester, Pa.).
The GLUT4 reporter in a murine retroviral vector was used to infect 3T3-L1 fibroblasts. The infected cells underwent normal adipose differentiation (see below), and we took several approaches to confirm that the GLUT4 reporter traffics appropriately. […] In the absence of insulin, GFP fluorescence is present in the perinuclear pattern that is characteristic of GLUT4, as well as in punctate structures near the plasma membrane and throughout the cytoplasm. Lipid droplets are present in the cytoplasm, and are seen as discrete areas of reduced fluorescence intensity.

[4] = system: GLUT4 reporter in CHO cells; experiment: Flow cytometry assay of GLUT4 reporter translocation to the plasma membrane in CHO cells; type: cell-based, Chinese hamster
Protocol: CHO-K1 cells stably expressing the murine ecotropic retroviral receptor were kindly provided by David Hirsch, Roger Lawrence, and Monty Kreiger (Massachusetts Institute of Technology, Cambridge Mass.), and were maintained in Han's F-12 medium with 10% fetal bovine serum, 2 mM glutamine, 100 U/ml penicillin, and 0.1 mg/ml streptomycin (Baker, B. W., et al., (1992)). To use identical experimental conditions in CHO and 3T3-L1 cells, CHO cells were placed in the same medium used for 3T3-L1 adipocytes two days before assays of GLUT4 trafficking. Phoenix ecotropic retroviral packaging cells were a gift from Garry Nolan (Stanford University Medical Center) and VE23 ecotropic retroviral packaging cells were a gift from Merav Socolovsky (Whitehead Institute, Cambridge Mass.) (Kinsella, and Nolan, Hum Gene Ther. 7:1405-1413 (1996); Socolovsky, M., et al. J Biol Chem. 272:14009-14012 (1997)). Both retroviral packaging cell lines were cultured in DMEM, 10% fetal bovine serum, glutamine, penicillin and streptomycin as above.
Confluent cells were reseeded on the indicated day of differentiation to six well plates (Coming, Costar #3506) one day before use in experiments, and were starved in DMEM without fetal bovine serum for at least 3 hours before insulin stimulation. Insulin was used at 80 nM or 160 nM; no difference was noted between these concentrations in either 3T3-L1 or CHO cells. After treatment in the presence or absence of insulin for the times indicated in each figure, cells were quickly transferred to 4° C. and washed with cold phosphate buffered saline containing 0.9 mM Ca^++ and 0.5 mM Mg^++ (PBS++). All subsequent steps were carried out at 4° C., and staining of externalized myc epitope was done on adherent cells. Cells were incubated with a 1:200 dilution of anti-myc (9E10) ascites in PBS++, 2% bovine serum albumin, 4% donkey serum for 1.5 hours. Cells were then washed twice in PBS++, for 5 min. each time. They were then incubated 45 min. in 12.5 µg/ml R-phycoerythrin conjugated donkey F(ab′)2 anti-mouse IgG secondary antibody, diluted in PBS++, 2% BSA, 4% donkey serum. Cells were washed three times with PBS++, for 10 min. each time, and were resuspended by gentle scraping in PBS++, 2% BSA for flow cytometry. For experiments involving insulin removal, cells were chilled as above after insulin stimulation, then washed twice with 5 mM sodium acetate, 150 mM NaCl, pH 4.0 (Yang, J., et al., J Biol Chem. 267:1039310399 (1992); Kao, A. W., et al., J Biol Chem. 273:25450-25457 (1998)). Cells were rewarmed in 37° C. DMEM for the times indicated, restimulated or not with insulin, and then returned to 4° C. and chilled with cold PBS++ before staining as above.
Flow cytometry was done on FACScan or FACSCalibur cytometers (Becton-Dickinson). Appropriate compensation between the FL1 and FL2 channels was set using uninfected (GFP-negative) cells or cells stained with PE only (e.g. using a PE-conjugated anti-transferrin receptor antibody; Pharmingen). […] For each sample, data from ≧10,000 cells were collected. Median fluorescence intensities were used for quantitation, since this measure of central tendency is least sensitive to outliers. For each sample, the PE and GFP fluorescence specifically attributable to the presence of the GLUT4 reporter were determined by subtracting background fluorescences, measured using control unstained cells and cells not expressing the reporter, respectively.
Whether this recycling mechanism is present in an unrelated cell type was also assessed. This was done by infecting Chinese Hamster Ovary (CHO) cells expressing the murine ecotropic retroviral receptor with a retrovirus carrying the GLUT4 reporter, and using FACS to isolate cells falling within a narrow range of GFP fluorescence intensities. CHO cells are smaller and have less autofluorescence than 3T3-L1 adipocytes or fibroblasts. […]

[5] = CHO cells in DMEM, 80 nM insulin

## insulin
[1]
  proportion of GLUT4 at the cell surface in the presence of insulin: approximately 50%
[2]; 3T3-L1 adipocytes, 10 min
  fold increase in the proportion of total GLUT4 present at the cell surface: 5.0 fold
[2]; 3T3-L1 cells
  difference in response between 80 nM and 160 nM insulin: no difference
[2]; all stages of 3T3-L1 differentiation, 80 nM insulin
  fall of the fraction of GLUT4 on the plasma membrane after the peak: 30% to 40%
[2]; confluent 3T3-L1 fibroblasts, 5 min
  fold increase in the proportion of total GLUT4 present at the cell surface: 4.4 fold
[2]; mature (Day 8 and 10) 3T3-L1 adipocytes, 80 nM insulin
  average maximal increase in the proportion of GLUT4 at the cell surface: 5.4 fold
[3]
  distribution of GFP fluorescence after insulin addition: redistribution of fluorescence to the plasma membrane
[4]; CHO cells
  difference in response between 80 nM and 160 nM insulin: no difference
[4]; CHO cells cultured in DME medium (25 mM glucose), 80 nM insulin
  kinetics of GLUT4 redistribution after insulin addition: biphasic kinetics
[4]; CHO cells cultured in F12 medium (10 mM glucose), 80 nM insulin
  kinetics of GLUT4 externalization after insulin addition: essentially monophasic response
[4]; [5]
  time of peak GLUT4 externalization after insulin addition: four to five
  time to steady state of cell-surface GLUT4 after insulin addition: twenty
[4]; CHO cells in DMEM, 80 nM insulin, 5 minutes after addition
  peak fold increase in the proportion of GLUT4 at the cell surface versus unstimulated cells: 5.5 fold
[4]; CHO cells, several experiments
  part of the peak increase in cell-surface GLUT4 eliminated in the subsequent decrease: 50% to 60%
[4]; confluent CHO cells, insulin 80 nM, 8 min
  fold increase in the proportion of total GLUT4 present at the cell surface: 3.5 fold

From patent US6632924B2, “Method of measuring plasma membrane targeting of GLUT4” (Whitehead Institute for Biomedical Research, priority 1999, dated 2003)
